Laboratory results published in PubChem BioAssay AID1963425 (Molecular Pharmacology Branch, DTP, NCI, 2024).

System: 323965-272-R-J2-PDC complex spheroid growth, % test/control
Assay: Anticancer human tumor 323965-272-R-J2-PDC patient-derived pancreatic carcinoma cell line growth inhibition [Asc]
Conditions: for IC50: curve of first compound; for viability, T/C: stronger effect = lower value
Procedure, shortened: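 Complex solid-tumor spheroids incorporating human endothelial and mesenchymal stem cells received single agents or combinations over half-log dilution ranges anchored to clinical Cmax.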

[1] = second compound 0.0316 µM, first compound 0.0316 µM
[2] = second compound 0.0316 µM, first compound 0.1 µM
[3] = second compound 0.0316 µM, first compound 0.316 µM
[4] = second compound 0.0316 µM, first compound 1 µM
[5] = second compound 0.1 µM, first compound 0.0316 µM
[6] = second compound 0.1 µM, first compound 0.1 µM
[7] = second compound 0.1 µM, first compound 0.316 µM
[8] = second compound 0.1 µM, first compound 1 µM
[9] = second compound 0.316 µM, first compound 0.0316 µM
[10] = second compound 0.316 µM, first compound 0.1 µM
[11] = second compound 0.316 µM, first compound 0.316 µM
[12] = second compound 0.316 µM, first compound 1 µM
[13] = second compound 1 µM, first compound 0.0316 µM
[14] = second compound 1 µM, first compound 0.1 µM
[15] = second compound 1 µM, first compound 0.316 µM
[16] = second compound 1 µM, first compound 1 µM
[17] = second compound 3.16 µM, first compound 0.0316 µM
[18] = second compound 3.16 µM, first compound 0.1 µM
[19] = second compound 3.16 µM, first compound 0.316 µM
[20] = second compound 3.16 µM, first compound 1 µM
[21] = second compound 10 µM, first compound 0.0316 µM
[22] = second compound 10 µM, first compound 0.1 µM
[23] = second compound 10 µM, first compound 0.316 µM
[24] = second compound 10 µM, first compound 1 µM
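Further: compound exposure lasted 7 days starting three days after spheroid seeding.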
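Wherever viability, T/C is given: 100% = DMSO vehicle control wells with viability set relative to vehicle.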

Question: What does the source list for C=C(F)C(=O)N1CCN(c2nc(OCC3CCCN3C)nc3c2CCN(c2cccc4cccc(Cl)c24)C3)CC1CC#N (stereo unspecified) + Cc1c(S(C)(=O)=O)c(-c2cc(F)cc(N3CCN(c4ccc(NS(=O)(=O)c5ccc(NC(CCN6CCC(C(=O)OCCCP(=O)(O)O)CC6)CSc6ccccc6)c(S(=O)(=O)C(F)(F)F)c5)cc4)CC3)c2)c(-c2ccc(Cl)cc2)n1C(C)C?
Answer: IC50 (second compound 0.0316 µM): 4340 nM; IC50 (second compound 0.1 µM): 4220 nM; IC50 (second compound 0.316 µM): 3720 nM; IC50 (second compound 1 µM): 3410 nM; IC50 (second compound 3.16 µM): < 31.6 nM; IC50 (second compound 10 µM): < 31.6 nM; viability, T/C [1]: 70.5%; viability, T/C [2]: 62.3%; viability, T/C [3]: 59.3%; viability, T/C [4]: 62.1%; viability, T/C (second compound 0.0316 µM, first compound 3.16 µM): 75%; viability, T/C (second compound 0.0316 µM, first compound 10 µM): 8.41%; viability, T/C [5]: 69.7%; viability, T/C [6]: 61.2%; viability, T/C [7]: 60.1%; viability, T/C [8]: 66.7%; viability, T/C (second compound 0.1 µM, first compound 3.16 µM): 72.2%; viability, T/C (second compound 0.1 µM, first compound 10 µM): 2.28%; viability, T/C [9]: 62.3%; viability, T/C [10]: 52.4%; viability, T/C [11]: 54.4%; viability, T/C [12]: 62.2%; viability, T/C (second compound 0.316 µM, first compound 3.16 µM): 60.1%; viability, T/C (second compound 0.316 µM, first compound 10 µM): 0.32%; viability, T/C [13]: 56%; viability, T/C [14]: 50.8%; viability, T/C [15]: 51.3%; viability, T/C [16]: 55.1%; viability, T/C (second compound 1 µM, first compound 3.16 µM): 54.1%; viability, T/C (second compound 1 µM, first compound 10 µM): 0.2%; viability, T/C [17]: 51.4%; viability, T/C [18]: 41.2%; viability, T/C [19]: 45%; viability, T/C [20]: 41.8%; viability, T/C (second compound 3.16 µM, first compound 3.16 µM): 36.8%; viability, T/C (second compound 3.16 µM, first compound 10 µM): 0.16%; viability, T/C [21]: 44.1%; viability, T/C [22]: 43.5%; viability, T/C [23]: 34.5%; viability, T/C [24]: 41.4%; viability, T/C (second compound 10 µM, first compound 3.16 µM): 34.4%; viability, T/C (second compound 10 µM, first compound 10 µM): 0.16%

Question: How did the IC50 (second compound 0.0316 µM) turn out when CCN1C(C(=O)NC23CCC(C(=O)O)(CC2)CC3)C(c2cccc(Cl)c2F)C2(C(=O)Nc3cc(Cl)ccc32)C12CCCCC2 (stereo unspecified) + Cc1c(S(C)(=O)=O)c(-c2cc(F)cc(N3CCN(c4ccc(NS(=O)(=O)c5ccc(NC(CCN6CCC(C(=O)OCCCP(=O)(O)O)CC6)CSc6ccccc6)c(S(=O)(=O)C(F)(F)F)c5)cc4)CC3)c2)c(-c2ccc(Cl)cc2)n1C(C)C was run?
Answer: > 3000 nM

Question: What about the IC50 (second compound 0.1 µM) of the same molecule?
Answer: > 3000 nM

Question: And the IC50 (second compound 0.316 µM)?
Answer: > 3000 nM

Question: What about the IC50 (second compound 1 µM) of the same molecule?
Answer: > 3000 nM

Question: What about the IC50 (second compound 3.16 µM) of the same molecule?
Answer: 1870 nM

Question: What about the IC50 (second compound 10 µM) of the same molecule?
Answer: 1180 nM

Question: What about the viability, T/C (second compound 0.0316 µM, first compound 0.00949 µM) of the same molecule?
Answer: 117%

Question: And the viability, T/C (second compound 0.0316 µM, first compound 0.03 µM)?
Answer: 103%

Question: What about the viability, T/C (second compound 0.0316 µM, first compound 0.0949 µM) of the same molecule?
Answer: 88.5%

Question: And the viability, T/C (second compound 0.0316 µM, first compound 0.3 µM)?
Answer: 101%

Question: And the viability, T/C (second compound 0.0316 µM, first compound 0.949 µM)?
Answer: 98.8%

Question: And the viability, T/C (second compound 0.0316 µM, first compound 3 µM)?
Answer: 93.8%

Question: And the viability, T/C (second compound 0.1 µM, first compound 0.00949 µM)?
Answer: 110%

Question: What about the viability, T/C (second compound 0.1 µM, first compound 0.03 µM) of the same molecule?
Answer: 94.2%

Question: What about the viability, T/C (second compound 0.1 µM, first compound 0.0949 µM) of the same molecule?
Answer: 104%

Question: What about the viability, T/C (second compound 0.1 µM, first compound 0.3 µM) of the same molecule?
Answer: 101%

Question: And the viability, T/C (second compound 0.1 µM, first compound 0.949 µM)?
Answer: 88.4%

Question: What about the viability, T/C (second compound 0.1 µM, first compound 3 µM) of the same molecule?
Answer: 81.8%

Question: What about the viability, T/C (second compound 0.316 µM, first compound 0.00949 µM) of the same molecule?
Answer: 89.4%

Question: What about the viability, T/C (second compound 0.316 µM, first compound 0.03 µM) of the same molecule?
Answer: 97.9%

Question: And the viability, T/C (second compound 0.316 µM, first compound 0.0949 µM)?
Answer: 94.5%

Question: And the viability, T/C (second compound 0.316 µM, first compound 0.3 µM)?
Answer: 87.1%

Question: What about the viability, T/C (second compound 0.316 µM, first compound 0.949 µM) of the same molecule?
Answer: 90%

Question: And the viability, T/C (second compound 0.316 µM, first compound 3 µM)?
Answer: 65.3%

Question: And the viability, T/C (second compound 1 µM, first compound 0.00949 µM)?
Answer: 95.3%

Question: What about the viability, T/C (second compound 1 µM, first compound 0.03 µM) of the same molecule?
Answer: 81.8%

Question: What about the viability, T/C (second compound 1 µM, first compound 0.0949 µM) of the same molecule?
Answer: 86.5%

Question: And the viability, T/C (second compound 1 µM, first compound 0.3 µM)?
Answer: 80.3%

Question: What about the viability, T/C (second compound 1 µM, first compound 0.949 µM) of the same molecule?
Answer: 81.8%

Question: And the viability, T/C (second compound 1 µM, first compound 3 µM)?
Answer: 54%

Question: And the viability, T/C (second compound 3.16 µM, first compound 0.00949 µM)?
Answer: 70.6%

Question: And the viability, T/C (second compound 3.16 µM, first compound 0.03 µM)?
Answer: 76.3%

Question: What about the viability, T/C (second compound 3.16 µM, first compound 0.0949 µM) of the same molecule?
Answer: 75.9%

Question: What about the viability, T/C (second compound 3.16 µM, first compound 0.3 µM) of the same molecule?
Answer: 69.4%

Question: What about the viability, T/C (second compound 3.16 µM, first compound 0.949 µM) of the same molecule?
Answer: 64.7%

Question: And the viability, T/C (second compound 3.16 µM, first compound 3 µM)?
Answer: 40.1%

Question: What about the viability, T/C (second compound 10 µM, first compound 0.00949 µM) of the same molecule?
Answer: 71.7%

Question: And the viability, T/C (second compound 10 µM, first compound 0.03 µM)?
Answer: 67%

Question: What about the viability, T/C (second compound 10 µM, first compound 0.0949 µM) of the same molecule?
Answer: 71.9%

Question: What about the viability, T/C (second compound 10 µM, first compound 0.3 µM) of the same molecule?
Answer: 62.1%

Question: What about the viability, T/C (second compound 10 µM, first compound 0.949 µM) of the same molecule?
Answer: 54.2%

Question: What about the viability, T/C (second compound 10 µM, first compound 3 µM) of the same molecule?
Answer: 34%

Question: How did the IC50 (second compound 0.0316 µM) turn out when CNC(C)C(=O)NC1CN(S(=O)(=O)c2cccc(S(=O)(=O)N3CCC4CCC(C(=O)NC(c5ccccc5)c5ccccc5)N4C(=O)C(NC(=O)C(C)NC)C3)c2)CCC2CCC(C(=O)NC(c3ccccc3)c3ccccc3)N2C1=O (stereo unspecified) + Cc1c(S(C)(=O)=O)c(-c2cc(F)cc(N3CCN(c4ccc(NS(=O)(=O)c5ccc(NC(CCN6CCC(C(=O)OCCCP(=O)(O)O)CC6)CSc6ccccc6)c(S(=O)(=O)C(F)(F)F)c5)cc4)CC3)c2)c(-c2ccc(Cl)cc2)n1C(C)C was run?
Answer: > 1000 nM

Question: What about the IC50 (second compound 0.1 µM) of the same molecule?
Answer: > 1000 nM

Question: What about the IC50 (second compound 0.316 µM) of the same molecule?
Answer: 878 nM

Question: What about the IC50 (second compound 1 µM) of the same molecule?
Answer: 745 nM

Question: And the IC50 (second compound 3.16 µM)?
Answer: 569 nM

Question: And the IC50 (second compound 10 µM)?
Answer: 324 nM

Question: What about the viability, T/C (second compound 0.0316 µM, first compound 0.00316 µM) of the same molecule?
Answer: 106%

Question: What about the viability, T/C (second compound 0.0316 µM, first compound 0.01 µM) of the same molecule?
Answer: 119%

Question: And the viability, T/C [1]?
Answer: 96.3%

Question: And the viability, T/C [2]?
Answer: 103%

Question: What about the viability, T/C [3] of the same molecule?
Answer: 99.3%

Question: And the viability, T/C [4]?
Answer: 58.4%

Question: What about the viability, T/C (second compound 0.1 µM, first compound 0.00316 µM) of the same molecule?
Answer: 107%

Question: What about the viability, T/C (second compound 0.1 µM, first compound 0.01 µM) of the same molecule?
Answer: 96.6%

Question: And the viability, T/C [5]?
Answer: 98.2%

Question: What about the viability, T/C [6] of the same molecule?
Answer: 107%

Question: What about the viability, T/C [7] of the same molecule?
Answer: 93%

Question: And the viability, T/C [8]?
Answer: 54.1%

Question: What about the viability, T/C (second compound 0.316 µM, first compound 0.00316 µM) of the same molecule?
Answer: 96.9%

Question: And the viability, T/C (second compound 0.316 µM, first compound 0.01 µM)?
Answer: 90.1%

Question: And the viability, T/C [9]?
Answer: 90.8%

Question: What about the viability, T/C [10] of the same molecule?
Answer: 86.1%

Question: What about the viability, T/C [11] of the same molecule?
Answer: 93.4%

Question: And the viability, T/C [12]?
Answer: 44.7%

Question: What about the viability, T/C (second compound 1 µM, first compound 0.00316 µM) of the same molecule?
Answer: 90.2%

Question: And the viability, T/C (second compound 1 µM, first compound 0.01 µM)?
Answer: 85.7%

Question: And the viability, T/C [13]?
Answer: 85.7%

Question: What about the viability, T/C [14] of the same molecule?
Answer: 76.7%

Question: And the viability, T/C [15]?
Answer: 83%

Question: What about the viability, T/C [16] of the same molecule?
Answer: 38.8%

Question: And the viability, T/C (second compound 3.16 µM, first compound 0.00316 µM)?
Answer: 79.8%

Question: And the viability, T/C (second compound 3.16 µM, first compound 0.01 µM)?
Answer: 70.9%

Question: What about the viability, T/C [17] of the same molecule?
Answer: 64%

Question: What about the viability, T/C [18] of the same molecule?
Answer: 75.8%

Question: And the viability, T/C [19]?
Answer: 72%

Question: And the viability, T/C [20]?
Answer: 29%

Question: And the viability, T/C (second compound 10 µM, first compound 0.00316 µM)?
Answer: 77.4%

Question: And the viability, T/C (second compound 10 µM, first compound 0.01 µM)?
Answer: 80.1%

Question: And the viability, T/C [21]?
Answer: 65.8%

Question: And the viability, T/C [22]?
Answer: 59.8%

Question: And the viability, T/C [23]?
Answer: 57%

Question: And the viability, T/C [24]?
Answer: 22.6%
